Results on 32 molecules are retold here after patent publication US9206188B2, “Substituted pyrrolo[2,3-b]pyridines as ITK and JAK inhibitors” (Arrien Pharmaceuticals LLC, priority 2013, dated 2015).

In assay [1] the target is ITK (Homo sapiens (Human), UniProt Q08881). Nature of the assay: ITK kinase assay (radiometric filter binding, 10 μM ATP). In kind it is biochemical. The protocol:
(§1) All additions were done on ice, followed by the addition of ATP mix. Wells were uniformly mixed using an Eppendorff plate shaker and incubated at 30° C. for 20 min, and stopped by the addition of 5 μL of 3% phosphoric acid. Volume was increased to 100 μL by adding 0.8% phosphoric acid which was then transferred to PC filter mats (Millipore), pre-equilibrated with 70% ethanol and water. Plates were washed thrice with 100 μL 0.8% phosphoric acid and dried for an hour at 60° C. 100 μL scintillation fluid was added into each well and reading taken in Perkin Elmer TOPCOUNT beta counter.
(§2) The reactions were carried out at 10 μM ATP for ITK, JAK3 and other TEC and Janus family of kinase.

Assay [2] addresses JAK3 (Homo sapiens (Human), UniProt P52333). Put plainly: JAK3 kinase assay (radiometric filter binding, 10 μM ATP). The format is biochemical. The protocol:
as §1, §2

Setting [3] is: 10-dose IC50 mode, 10 μM ATP, read-out: ITK kinase inhibition.
[4] abbreviates: 10-dose IC50 mode, 10 μM ATP, read-out: JAK3 kinase inhibition.

Like-named read-outs stand apart in the source and are kept apart here.

Sequence of JAK3 (P52333 whole entry): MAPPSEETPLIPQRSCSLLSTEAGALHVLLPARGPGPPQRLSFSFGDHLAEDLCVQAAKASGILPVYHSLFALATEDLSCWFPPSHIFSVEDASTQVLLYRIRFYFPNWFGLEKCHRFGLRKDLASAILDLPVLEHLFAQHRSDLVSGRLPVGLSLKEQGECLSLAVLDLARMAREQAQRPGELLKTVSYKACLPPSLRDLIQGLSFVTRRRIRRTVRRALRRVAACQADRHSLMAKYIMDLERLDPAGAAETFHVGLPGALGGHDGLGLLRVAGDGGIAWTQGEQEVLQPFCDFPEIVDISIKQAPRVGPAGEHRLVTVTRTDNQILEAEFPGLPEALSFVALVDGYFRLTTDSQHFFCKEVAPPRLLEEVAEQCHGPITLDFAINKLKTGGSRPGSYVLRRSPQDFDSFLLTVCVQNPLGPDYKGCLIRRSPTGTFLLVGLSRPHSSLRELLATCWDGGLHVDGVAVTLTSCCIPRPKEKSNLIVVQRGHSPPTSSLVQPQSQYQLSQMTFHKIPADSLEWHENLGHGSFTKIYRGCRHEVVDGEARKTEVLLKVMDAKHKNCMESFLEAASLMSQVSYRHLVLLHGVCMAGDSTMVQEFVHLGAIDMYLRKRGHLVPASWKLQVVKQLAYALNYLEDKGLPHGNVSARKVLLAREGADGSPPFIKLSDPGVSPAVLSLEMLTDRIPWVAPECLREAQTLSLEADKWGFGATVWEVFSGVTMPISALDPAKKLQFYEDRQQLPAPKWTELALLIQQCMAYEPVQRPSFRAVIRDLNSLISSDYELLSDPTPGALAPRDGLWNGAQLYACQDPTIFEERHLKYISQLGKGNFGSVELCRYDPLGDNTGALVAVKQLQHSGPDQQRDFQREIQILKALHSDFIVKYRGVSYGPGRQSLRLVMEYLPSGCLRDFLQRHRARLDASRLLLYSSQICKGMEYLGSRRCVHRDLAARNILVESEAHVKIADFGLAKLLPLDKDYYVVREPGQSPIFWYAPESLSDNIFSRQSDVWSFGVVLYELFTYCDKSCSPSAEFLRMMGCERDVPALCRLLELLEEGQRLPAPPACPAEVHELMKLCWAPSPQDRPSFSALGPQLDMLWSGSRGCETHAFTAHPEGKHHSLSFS
Sequence of ITK (Q08881 whole entry): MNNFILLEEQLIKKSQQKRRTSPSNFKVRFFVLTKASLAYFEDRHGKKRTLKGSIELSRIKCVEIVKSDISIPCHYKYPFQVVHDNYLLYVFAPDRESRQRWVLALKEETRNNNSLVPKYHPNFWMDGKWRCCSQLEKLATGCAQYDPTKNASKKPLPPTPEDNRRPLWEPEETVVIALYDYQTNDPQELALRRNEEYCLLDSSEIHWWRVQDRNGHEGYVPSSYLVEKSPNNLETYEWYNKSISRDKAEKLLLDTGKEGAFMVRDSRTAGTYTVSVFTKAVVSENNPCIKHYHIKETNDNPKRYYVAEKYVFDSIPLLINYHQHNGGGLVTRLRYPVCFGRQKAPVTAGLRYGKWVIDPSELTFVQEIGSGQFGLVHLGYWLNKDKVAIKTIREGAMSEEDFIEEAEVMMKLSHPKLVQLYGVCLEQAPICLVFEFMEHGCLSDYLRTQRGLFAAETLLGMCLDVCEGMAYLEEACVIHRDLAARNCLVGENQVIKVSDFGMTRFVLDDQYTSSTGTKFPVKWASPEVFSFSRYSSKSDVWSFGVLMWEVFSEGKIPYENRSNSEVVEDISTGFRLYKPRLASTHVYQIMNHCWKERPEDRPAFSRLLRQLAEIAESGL

For `CC/C=C/C(=O)Nc1cc(-c2cnc3[nH]cc(Cl)c3c2)ccc1Cl` [Example 47, (E)-N-(2-chloro-5-(3-chloro-1H-pyrrolo[2,3-b]pyridin-5-yl)phenyl)pent-2-enamide], the IC50 in assay [1] (setting [3]) and in assay [2] (setting [4]) was over 1000 nM throughout.

Consider `C=CC(=O)Nc1cccc(-c2cnc3[nH]cc(-c4cc5ccccc5[nH]4)c3c2)c1` [Example 74, N-(3-(3-(1H-indol-2-yl)-1H-pyrrolo[2,3-b]pyridin-5-yl)phenyl)acrylamide], for which the IC50 in assay [1] (setting [3]) was over 1000 nM; in assay [2] (setting [4]), over 100 nM.

`C=CC(=O)N1CCCC1C(=O)Nc1cccc(-c2cnc3[nH]cc(Cl)c3c2)c1` (stereo not shown) [Example 68, 1-acryloyl-N-(3-(3-chloro-1H-pyrrolo[2,3-b]pyridin-5-yl)phenyl)pyrrolidine-2-carboxamide]: the IC50 in assay [1] (setting [3]) and in assay [2] (setting [4]) was over 100 nM in each case.

With `C=CC(=O)Nc1cc(-c2cnc3[nH]cc(-c4cc(F)cc(F)c4OC)c3c2)c(F)cc1F` [Example 39, N-(5-(3-(3,5-difluoro-2-methoxyphenyl)-1H-pyrrolo[2,3-b]pyridin-5-yl)-2,4-difluorophenyl)acrylamide], the IC50 in assay [1] (setting [3]) and in assay [2] (setting [4]) was over 100 nM each time.

Regarding `CCC#CC(=O)Nc1cccc(-c2cnc3[nH]ccc3c2)n1` [Example 78, N-(6-(1H-pyrrolo[2,3-b]pyridin-5-yl)pyridin-2-yl)pent-2-ynamide], the IC50 in assay [1] (setting [3]) and in assay [2] (setting [4]) was under 100 nM in each case.

Take `C=CC(=O)Nc1cccc(-c2cnc3[nH]cc(-c4cc5ccccc5[nH]4)c3n2)c1` [Example 5, N-(3-(7-(1H-indol-2-yl)-5H-pyrrolo[2,3-b]pyrazin-2-yl)phenyl)acrylamide]: the IC50 in assay [1] (read-out: biochemical IC50 against ITK) and in assay [2] (read-out: biochemical IC50 against JAK3) was 100 to 1000 nM throughout.

`Cc1c[nH]c2ncc(-c3cccc(NC(=O)C4CCCN4)c3)cc12` (stereo not shown) [Example 71, N-(3-(3-methyl-1H-pyrrolo[2,3-b]pyridin-5-yl)phenyl)pyrrolidine-2-carboxamide]: the IC50 in assay [1] (setting [3]) and in assay [2] (setting [4]) was over 100 nM throughout.

As for `C=CC(=O)Nc1ccccc1-c1cnc2[nH]cc(Cl)c2c1` [Example 18, N-(2-(3-chloro-1H-pyrrolo[2,3-b]pyridin-5-yl)phenyl)acrylamide], the IC50 in assay [1] (setting [3]) and in assay [2] (setting [4]) was over 1000 nM each time.

For `CC#CC(=O)Nc1cc(-c2cnc3[nH]ccc3c2)ccc1F` [Example 87, N-(2-fluoro-5-(1H-pyrrolo[2,3-b]pyridin-5-yl)phenyl)but-2-ynamide], the values for the IC50 in assay [1] (setting [3]) and in assay [2] (setting [4]) were over 100 nM and under 100 nM, respectively.

Turning to `C#CC(=O)Nc1cccc(-c2cnc3[nH]cc(-c4cccc(S(=O)(=O)N(C)C(C)(C)C)c4)c3n2)c1` [Example 95, N-(3-(7-(3-(N-(tert-butyl)-N-methylsulfamoyl)phenyl)-5H-pyrrolo[2,3-b]pyrazin-2-yl)phenyl)propiolamide], the IC50 in assay [1] (setting [3]) and in assay [2] (setting [4]) was over 100 nM in each case.

Regarding `C=CC(=O)Nc1cccc(-c2cnc3[nH]cc(-c4cccc(S(=O)(=O)N(C)C)c4)c3c2)c1` [Example 34, N-(3-(3-(3-(N,N-dimethylsulfamoyl)phenyl)-1H-pyrrolo[2,3-b]pyridin-5-yl)phenyl)acrylamide], the IC50 in assay [1] (setting [3]) and in assay [2] (setting [4]) was over 100 nM throughout.

On to `CC#CC(=O)Nc1cccc(-c2cnc3[nH]cc(Cl)c3c2)c1` [Example 19, N-(3-(3-chloro-1H-pyrrolo[2,3-b]pyridin-5-yl)phenyl)but-2-ynamide], for which the IC50 in assay [1] (setting [3]) and in assay [2] (setting [4]) was under 100 nM in each case.

Consider `CCC#CC(=O)Nc1cccc(-c2cnc3[nH]cc(-c4cccc(S(=O)(=O)N(C)C(C)(C)C)c4)c3c2)c1` [Example 32, N-(3-(3-(3-(N-(tert-butyl)-N-methylsulfamoyl)phenyl)-1H-pyrrolo[2,3-b]pyridin-5-yl)phenyl)pent-2-ynamide], for which the IC50 in assay [1] (setting [3]) is over 100 nM; in assay [2] (setting [4]), under 100 nM.

On to `CC#CC(=O)Nc1cccc(-c2cnc3[nH]cc(C)c3c2)c1` [Example 23, N-(3-(3-methyl-1H-pyrrolo[2,3-b]pyridin-5-yl)phenyl)but-2-ynamide], for which the IC50 in assay [1] (setting [3]) and in assay [2] (setting [4]) was under 100 nM throughout.

Regarding `CC#CC(=O)Nc1cccc(-c2cnc3[nH]cc(C)c3c2)n1` [Example 91, N-(6-(3-methyl-1H-pyrrolo[1,3-b]pyridin-5-yl)pyridin-2-yl)but-2-ynamide], the IC50 in assay [1] (setting [3]) and in assay [2] (setting [4]) was under 100 nM each time.

`C=CC(=O)Nc1cc(-c2cnc3[nH]cc(C)c3c2)ccc1Cl` [Example 15, N-(2-chloro-5-(3-methyl-1H-pyrrolo[2,3-b]pyridin-5-yl)phenyl)acrylamide]: the IC50 in assay [1] (setting [3]) and in assay [2] (setting [4]) was over 100 nM in each case.

For `O=C(CF)Nc1cccc(-c2cnc3[nH]cc(Cl)c3c2)c1` [Example 22, N-(3-(3-chloro-1H-pyrrolo[2,3-b]pyridin-5-yl)phenyl)-2-fluoroacetamide], the IC50 in assay [1] (setting [3]) was over 1000 nM; in assay [2] (setting [4]), under 100 nM.

Regarding `COc1cc(F)c(C)cc1-c1c[nH]c2ncc(-c3cc(F)cc(NC(=O)/C(C)=C/C(C)(C)C)c3C)cc12` [Example 173, (E)-N-(5-fluoro-3-(3-(4-fluoro-2-methoxy-5-methylphenyl)-1H-pyrrolo[2,3-b]pyridin-5-yl)-2-methylphenyl)-2,4,4-trimethylpent-2-enamide], the IC50 in assay [1] (setting [3]) and in assay [2] (setting [4]) was under 100 nM each time.

With `C=CC(=O)Nc1cccc(-c2cnc3[nH]cc(-c4cccc(S(=O)(=O)N(C)C(C)(C)C)c4)c3c2)c1` [Example 27, N-(3-(3-(3-(N-(tert-butyl)-N-methylsulfamoyl)phenyl)-1H-pyrrolo[2,3-b]pyridin-5-yl)phenyl)acrylamide], the IC50 in assay [1] (setting [3]) and in assay [2] (setting [4]) was under 100 nM each time.

`C=CC(=O)Nc1cccc(-c2cnc3[nH]cc(-c4cccc(C(N)=O)c4)c3c2)c1` [Example 76, 3-(5-(3-acrylamidophenyl)-1H-pyrrolo[2,3-b]pyridin-3-yl)benzamide]: the IC50 in assay [1] (setting [3]) and in assay [2] (setting [4]) was over 100 nM each time.

For `C=CC(=O)Nc1cc(-c2cnc3[nH]ccc3c2)ccc1F` [Example 59, N-(2-fluoro-5-(1H-pyrrolo[2,3-b]pyridin-5-yl)phenyl)acrylamide], the IC50 in assay [1] (setting [3]) and in assay [2] (setting [4]) was under 100 nM each time.

With `O=C(Nc1cccc(-c2cnc3[nH]cc(Cl)c3c2)c1)C1CCCN1` (stereo not shown) [Example 67, N-(3-(3-chloro-1H-pyrrolo[2,3-b]pyridin-5-yl)phenyl)pyrrolidine-2-carboxamide], the IC50 in assay [1] (setting [3]) and in assay [2] (setting [4]) was over 100 nM in each case.

As to `C=CC(=O)Nc1cccc(-c2cnc3[nH]nc(C)c3c2)c1` [Example 1, N-(3-(3-methyl-1H-pyrazolo[3,4-b]pyridin-5-yl)phenyl)acrylamide], the IC50 in assay [1] (setting [3]) and in assay [2] (setting [4]) was over 1000 nM each time.

On to `C=CC(=O)Nc1cccc(-c2cnc3[nH]cc(-c4cccc(F)c4OC)c3c2)c1` [Example 26, N-(3-(3-(3-fluoro-2-methoxyphenyl)-1H-pyrrolo[2,3-b]pyridin-5-yl)phenyl)acrylamide], for which the IC50 in assay [1] (setting [3]) and in assay [2] (setting [4]) was under 100 nM in each case.

As to `C=CC(=O)Nc1cccc(-c2cnc3[nH]cc(-c4cccc(S(C)(=O)=O)c4)c3c2)c1` [Example 35, N-(3-(3-(3-(methylsulfonyl)phenyl)-1H-pyrrolo[2,3-b]pyridin-5-yl)phenyl)acrylamide], the IC50 in assay [1] (setting [3]) and in assay [2] (setting [4]) was over 100 nM in each case.

Regarding `C=CC(=O)Nc1cc(-c2cnc3[nH]cc(Cl)c3c2)ccc1Cl` [Example 46, N-(2-chloro-5-(3-chloro-1H-pyrrolo[2,3-b]pyridin-5-yl)phenyl)acrylamide], the IC50 in assay [1] (setting [3]) and in assay [2] (setting [4]) was over 1000 nM each time.

As for `Cc1c[nH]c2ncc(-c3cccc(NC(=O)/C=C/CN(C)C)c3)cc12` [Example 152, (E)-4-(dimethylamino)-N-(3-(3-methyl-1H-pyrrolo[2,3-b]pyridin-5-yl)phenyl)but-2-enamide], the IC50 in assay [1] (setting [3]) and in assay [2] (setting [4]) was over 100 nM in each case.

For `COc1cc(F)c(C)cc1-c1c[nH]c2ncc(-c3cc(F)cc(NC(=O)/C=C/CN(C)C)c3C)cc12` [Example 172, (E)-4-(dimethylamino)-N-(5-fluoro-3-(3-(4-fluoro-2-methoxy-5-methylphenyl)-1H-pyrrolo[2,3-b]pyridin-5-yl)-2-methylphenyl)but-2-enamide], the IC50 in assay [1] (setting [3]) and in assay [2] (setting [4]) was under 100 nM each time.

In the case of `C=CC(=O)Nc1cc(F)cc(-c2cnc3[nH]cc(-c4cc(F)cc(F)c4OC)c3c2)c1C` [Example 168, N-(3-(3-(3,5-difluoro-2-methoxyphenyl)-1H-pyrrolo[2,3-b]pyridin-5-yl)-5-fluoro-2-methylphenyl)acrylamide], the IC50 in assay [1] (setting [3]) and in assay [2] (setting [4]) was under 100 nM each time.

As to `C=CC(=O)Nc1cc(-c2cnc3[nH]ccc3c2)cc(F)c1F` [Example 63, N-(2,3-difluoro-5-(1H-pyrrolo[2,3-b]pyridin-5-yl)phenyl)acrylamide], the IC50 was over 1000 nM in assay [1] (setting [3]) and over 100 nM in assay [2] (setting [4]).

In the case of `CN(C)C/C=C/C(=O)Nc1cccc(-c2cnc3[nH]cc(Cl)c3c2)c1` [Example 153, (E)-N-(3-(3-chloro-1H-pyrrolo[2,3-b]pyridin-5-yl)phenyl)-4-(dimethylamino)but-2-enamide], the IC50 in assay [1] (setting [3]) was over 100 nM; in assay [2] (setting [4]), under 100 nM.

As to `C=CC(=O)Nc1ccccc1-c1cnc2[nH]cc(C)c2c1` [Example 17, N-(2-(3-methyl-1H-pyrrolo[2,3-b]pyridin-5-yl)phenyl)acrylamide], the IC50 in assay [1] (setting [3]) and in assay [2] (setting [4]) was over 1000 nM each time.
